Source: patent US11976083B2, “Inhibitors of peptidylarginine deiminases” (Gilead Sciences, Inc., priority 2020, dated 2024)

Target: T1, human PAD4 (Homo sapiens, UniProt Q9UM07)
T1 construct: human PAD4 (NM_012387), A2-P663, was PCR amplified; His-SUMO (N, cleaved yes); made in house; host or cells: E. coli BL21(DE3)
Test: In vitro PAD4 BAEE biochemical assay
Conditions: BAEE substrate 3 mM, 5 nM PAD4, 2 mM calcium chloride; geometric mean of multiple experiments
Method in brief: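 Ammonia produced by BAEE deimination (3 mM substrate, 2 h, 25 °C) was read as fluorescent isoindole after o-phthalaldehyde/DTT derivatization, ex 405 nm/em 535 nm. Human PAD4 at 5 nM final, 2 mM calcium, pH 7.6 MOPS; compound preincubated 30 min. IC50s, normalized to BB-Cl-Amidine and DMSO controls, were geometric-mean averaged.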

T1 sequence (Q9UM07 2-663): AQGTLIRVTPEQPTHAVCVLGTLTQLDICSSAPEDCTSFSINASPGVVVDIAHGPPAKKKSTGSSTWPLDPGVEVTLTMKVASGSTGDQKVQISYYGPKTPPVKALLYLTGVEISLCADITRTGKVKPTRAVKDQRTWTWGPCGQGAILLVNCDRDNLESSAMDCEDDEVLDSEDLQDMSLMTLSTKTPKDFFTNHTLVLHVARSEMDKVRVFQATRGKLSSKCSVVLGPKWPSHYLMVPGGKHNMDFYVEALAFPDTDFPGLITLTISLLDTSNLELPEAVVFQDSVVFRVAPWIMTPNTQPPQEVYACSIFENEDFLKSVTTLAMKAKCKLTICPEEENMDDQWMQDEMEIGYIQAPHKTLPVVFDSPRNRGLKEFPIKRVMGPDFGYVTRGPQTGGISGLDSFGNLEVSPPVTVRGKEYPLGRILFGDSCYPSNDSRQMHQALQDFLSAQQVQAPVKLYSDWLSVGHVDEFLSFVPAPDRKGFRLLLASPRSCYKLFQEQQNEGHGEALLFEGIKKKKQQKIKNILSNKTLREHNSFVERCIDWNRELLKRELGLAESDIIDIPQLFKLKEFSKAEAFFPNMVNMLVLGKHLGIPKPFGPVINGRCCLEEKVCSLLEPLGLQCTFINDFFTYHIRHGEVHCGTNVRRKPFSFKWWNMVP

SMILES | IC50 [nM]
C[C@H]1NC(=O)[C@@]2(C)C[C@@H]2CCCCCn2c(-c3nc4cc(C(=O)N[C@H]5CNCC[C@@H]5F)c(F)cc4n3C3CC3)cc3ccc1nc32 [Example 545, 1-cyclopropyl-2-[(2~ {R},5~{S},7~{S})-2,5-dimethyl-4-oxo-3,13,19-triazatetracyclo[11.5.2.0^ {5,7}.0^{16,20}]icosa-1(19),14,16(20), 17-tetraen-14-yl]-6-fluoro-~{N}-[(3~ {S},4~{S})-4-fluoro-3-piperidyl]benzimidazole-5-carboxamide] | 56
C[C@H]1NC(=O)c2nn(C)nc2CCCCCn2c(-c3nc4cc(C(=O)N[C@H]5CNCC[C@@H]5F)c(F)cc4n3C)cc3ccc1nc32 [Example 546, 2-[(2~{R})-2,7-dimethyl-4-oxo-3,6,7,8,15,21-hexazatetracyclo[13.5.2.0^ {5,9}.0^{18,22}]docosa-1(21),5,8,16,18(22), 19-hexaen-16-yl]-6-fluoro-~{N}-[(3~{S},4~{S})-4-fluoro-3-piperidyl]-1-methyl-benzimidazole-5-carboxamide] | 59
C[C@H]1NC(=O)[C@H]2C[C@@H]2C/C=C/C(F)(F)Cn2c(-c3nc4cc(C(=O)N[C@H]5CNCC[C@@H]5F)c(F)c(F)c4n3C)cc3ccc1nc32 [Example 547, 2-[(2~{R},5~{S},7~ {S},9~{E})-11,11-difluoro-2-methyl-4-oxo-3,13,19-triazatetracyclo [11.5.2.0^{5,7}.0^{16,20}]icosa-1(19),9,14,16(20), 17-pentaen-14-yl]-6,7-difluoro-~ {N}-[(3~{S},4~{S})-4-fluoro-3-piperidyl]-1-methyl-benzimidazole-5-carboxamide] | 50
C[C@H]1NC(=O)[C@@]2(C)C[C@@H]2CCCCCn2c(-c3nc4cc(C(=O)N[C@H]5CNCC[C@@H]5F)c(F)cc4n3C)cc3ccc1nc32 [Example 548, 2-[(2~{R},5~{S},7~ {S})-2,5-dimethyl-4-oxo-3,13,19-triazatetracyclo[11.5.2.0^ {5,7}.0^{16,20}]icosa-1(19),14,16(20),17-tetraen-14-yl]-6-fluoro-~{N}-[(3~{S},4~{S})-4-fluoro-3-piperidyl]-1-methyl-benzimidazole-5-carboxamide] | 56
C[C@H]1NC(=O)[C@@]2(C)C[C@@H]2CCCC(F)(F)Cn2c(-c3nc4cc(C(=O)N[C@H]5CNCC[C@@H]5F)c(F)cc4n3C)cc3ccc1nc32 [Example 549, 2-[(2~{R},5~{S},7~ {S})-11,11-difluoro-2,5-dimethyl-4-oxo-3,13,19-triazatetracyclo [11.5.2.0^{5,7).0^ {16,20}]icosa-1(19), 14,16(20),17-tetraen-14-yl]-6-fluoro-~{N}-[(3~ {S},4~{S})-4-fluoro-3-piperidyl]-1-methyl-benzimidazole-5-carboxamide] | 129
Cc1cc2c(cc1C(=O)N[C@H]1CNCC[C@@H]1F)nc(-c1cc3ccc4nc3n1CC(F)(F)/C=C/C[C@H]1C[C@@H]1C(=O)N[C@@H]4C)n2C [Example 550, 2-[(2~{R},5~{S},7~ {S},9~{E})-11,11-difluoro-2-methyl-4-oxo-3,13,19-triazatetracyclo [11.5.2.0^{5,7}.0^{16,20}]icosa-1(19),9,14,16(20), 17-pentaen-14-yl]-~{N}-[(3~{S},4~{S})-4-fluoro-3-piperidyl]-1,6-dimethyl-benzimidazole-5-carboxamide] | 60
Cc1cc2c(cc1C(=O)N[C@H]1CNCC[C@@H]1F)nc(-c1cc3ccc4nc3n1CC(F)(F)CCC[C@@H]1C[C@H]1C(=O)N[C@@H]4C)n2C [Example 551, 2-[(2~{R},5~{R},7~ {R})-11,11-difluoro-2-methyl-4-oxo-3,13,19-triazatetracyclo[11.5.2.0^ {5,7).0^{16,20}]icosa-1(19),14,16(20),17-tetraen-14-yl]-~{N}-[(3~ {S},4~{S})-4-fluoro-3-piperidyl]-1,6-dimethyl-benzimidazole-5-carboxamide] | 43
C[C@H]1NC(=O)[C@@]2(C)C[C@@H]2C/C=C/C(F)(F)Cn2c(-c3nc4cc(C(=O)N[C@H]5CNCC[C@@H]5F)c(F)cc4n3C)cc3ccc1nc32 [Example 552, 2-[(2~{R},5~{S},7~{S}, 9~{E})-11,11-difluoro-2,5-dimethyl-4-oxo-3,13,19-triazatetracyclo[11.5.2.0^ {5,7}.0^{16,20}]icosa-1(19),9,14,16(20), 17-pentaen-14-yl]-6-fluoro-~{N}-[(3~{S},4~ {S})-4-fluoro-3-piperidyl]-1-methyl-benzimidazole-5-carboxamide] | 61
C[C@H]1NC(=O)[C@]2(C)C[C@H]2CCCC(F)(F)Cn2c(-c3nc4cc(C(=O)N[C@H]5CNCC[C@@H]5F)c(F)cc4n3C)cc3ccc1nc32 [Example 553, 2-[(2~{R},5~{R},7~ {R})-11,11-difluoro-2,5-dimethyl-4-oxo-3,13,19-triazatetracyclo [11.5.2.0^{5,7}.0^ {16,20}]icosa-1(19),14, 16(20),17-tetraen-14-yl]-6-fluoro-~{N}-[(3~{S}, 4~{S})-4-fluoro-3-piperidyl]-1-methyl-benzimidazole-5-carboxamide] | 47
C[C@H]1NC(=O)[C@]2(C)C[C@H]2CCCC(F)(F)Cn2c(-c3nc4cc(C(=O)N5[C@H]6CC[C@@H]5[C@H](N)C6)c(F)cc4n3C)cc3ccc1nc32 [Example 554, (2~{R},5~{R},7~ {R})-14-[5-[(1~{R},2~ {R},4~{S})-2-amino-7-azabicyclo[2.2.1]heptane-7-carbonyl]-6-fluoro-1-methyl-benzimidazol-2-yl]-11,11-difluoro-2,5-dimethyl-3,13,19-triazatetracyclo[11.5.2.0^ {5,7}.0^{16,20}]icosa-1(19), 14,16(20),17-tetraen-4-one] | 34
C[C@H]1NC(=O)C(C)(C)CCCCCCn2c(-c3nc4cc(C(=O)N5[C@H]6CC[C@@H]5[C@H](N)C6)c(F)c(F)c4n3C)cc3ccc1nc32 [Example 555, (11~{R})-17-[5-[(1~{R}, 2~{R},4~{S})-2-amino-7-azabicyclo [2.2.1]heptane-7-carbonyl]-6,7-difluoro-1-methyl-benzimidazol-2-yl]-8,8,11-trimethyl-1,10,19-triazatricyclo [10.5.2.0^{15,18}]nonadeca-12(19),13,15(18),16-tetraen-9-one] | 56
Cc1cc2c(cc1C(=O)N1[C@H]3CC[C@@H]1[C@H](N)C3)nc(-c1cc3ccc4nc3n1CCCCCCC(C)(C)C(=O)N[C@@H]4C)n2C [Example 556, (11~{R})-17-[5-[(1~{R}, 2~{R},4~{S})-2-amino-7-azabicyclo[2.2.1]heptane-7-carbonyl]-1,6-dimethyl-benzimidazol-2-yl]-8,8,11-trimethyl-1,10,19-triazatricyclo[10.5.2.0^ {15,18}]nonadeca-12(19),13,15(18),16-tetraen-9-one] | 69
C[C@H]1NC(=O)[C@@H]2C[C@H]2CCCCCn2c(-c3nc4cc(C(=O)N5[C@H]6CC[C@@H]5[C@H](N)C6)c(F)cc4n3C3CC3)cc3ccc1nc32 [Example 557, (2~{R},5~{R},7~{R})-14-[5-[(1~{R},2~{R},4~ {S})-2-amino-7-azabicyclo [2.2.1]heptane-7-carbonyl]-1-cyclopropyl-6-fluoro-benzimidazol-2-yl]-2-methyl-3,13,19-triazatetracyclo[11.5.2.0^ {5,7}.0^{16,20}] icosa-1(19),14,16(20), 17-tetraen-4-one] | 31
COCCn1c(-c2cc3ccc4nc3n2CCCCCCC(C)(C)C(=O)N[C@@H]4C)nc2cc(C(=O)N[C@H]3CNCC[C@@H]3F)c(F)c(F)c21 [Example 558, 6,7-difluoro-~{N}-[(3~{S},4~{S})-4-fluoro-3-piperidyl]-1-(2-methoxyethyl)-2-[(11~{R})-8,8,11-trimethyl-9-oxo-1,10,19-triazatricyclo [10.5.2.0^{15,18}]nonadeca-12(19),13,15(18),16-tetraen-17-yl]benzimidazole-5-carboxamide] | 80
COCCn1c(-c2cc3ccc4nc3n2CCCCC[C@@H]2C[C@H]2C(=O)N[C@@H]4C)nc2cc(C(=O)N[C@H]3CNCC[C@@H]3F)c(F)c(F)c21 [Example 559, 6,7-difluoro-~{N}-[(3~{S},4~{S})-4-fluoro-3-piperidyl]-1-(2-methoxyethyl)-2-[(2~{R},5~{R},7~ {R})-2-methyl-4-oxo-3,13,19-triazatetracyclo [11.5.2.0^{5,7}.0^{16,20}]icosa-1(19),14,16(20), 17-tetraen-14-yl] benzimidazole-5-carboxamide] | 47
C[C@H]1NC(=O)[C@@H]2C[C@H]2CCCC(F)(F)Cn2c(-c3nc4cc(C(=O)N[C@H]5CNCC[C@@H]5F)c(F)c(F)c4n3C)cc3ccc1nc32 [Example 560, 2-[(2~{R},5~{R},7~ {R})-11,11-difluoro-2-methyl-4-oxo-3,13,19-triazatetracyclo[11.5.2.0^ {5,7}.0^{16,20}]icosa-1(19), 14,16(20),17-tetraen-14-yl]-6,7-difluoro-~{N}-[(3~{S},4~{S})-4-fluoro-3-piperidyl]-1-methyl-benzimidazole-5-carboxamide] | 52
C[C@H]1NC(=O)[C@@H]2C[C@H]2C/C=C/CCn2c(-c3nc4cc(C(=O)N[C@H]5CNCC[C@@H]5F)cc(C(F)(F)F)c4n3C)cc3ccc1nc32 [Example 561, ~{N}-[(3~{S},4~{S})-4-fluoro-3-piperidyl]-1-methyl-2-[(2~{R},5~{R}, 7~{R},9~{E})-2-methyl-4-oxo-3,13,19-triazatetracyclo [11.5.2.0^{5,7}.0^{16,20}]icosa-1(19),9,14,16(20), 17-pentaen-14-yl]-7-(trifluoromethyl) benzimidazole-5-carboxamide] | 523
C[C@H]1NC(=O)[C@@H]2C[C@H]2CCCCCn2c(-c3nc4cc(C(=O)N[C@H]5CNCC[C@@H]5F)cc(C(F)(F)F)c4n3C)cc3ccc1nc32 [Example 562, ~{N}-[(3~{S},4~{S})-4-fluoro-3-piperidyl]-1-methyl-2-[(2~{R},5~{R},7~ {R})-2-methyl-4-oxo-3,13,19-triazatetracyclo [11.5.2.0^{5,7}.0^{16,20}]icosa-1(19),14,16(20), 17-tetraen-14-yl]-7-(trifluoromethyl) benzimidazole-5-carboxamide] | 466
